Measurements from PubChem BioAssay AID540271 (Broad Institute, 2011).
The source made the active and inactive calls. No rule for the calls is given here.

Each molecule was assayed on S. cerevisiae expressing PfHSP40, growth rescue, plate reader (assay: Yeast growth rescue from Plasmodium falciparum HSP40 toxicity, dose response confirmatory, plate reader (AID 540271);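 also: yeast growth read after three days of incubation at 30 °C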).
In the case of `O=c1[nH]cc(F)c(=O)[nH]1`, the AC50 is reported as 0.562 µM.
For `CC(=O)NC(c1ccc(C)cc1)c1cc([N+](=O)[O-])c2cccnc2c1O` (stereo unspecified), the AC50 was 8.83 µM.
With `CC(=O)C1=C(c2ccc(Br)cc2)C(=O)c2ccccc2C1=O` the AC50 was 2.62 µM.
Work on `CC(C)c1cc(-c2cc(C(=O)NCc3ccccc3)on2)nc(NCC2CC2)n1` yielded an AC50 of 5.24 µM.
`O=C(C=Cc1cccc(O)c1)c1ccccc1O` gave an AC50 of 2.1 µM.
`O=C(O)c1c(NC(=O)N2CCCC2)sc2c1CCCC2` showed an AC50 of 3.42 µM.
`S=C1SCN(Cc2cccnc2)CN1Cc1cccnc1` showed an AC50 of 4.06 µM.
For `CC(C)N1CCN(c2ccc(OCC3COC(Cn4cncn4)(c4ccc(Cl)cc4Cl)O3)cc2)CC1` (stereo unspecified), the AC50 was 2.01 µM.
Molecule `CCCCCCCn1c(=O)c(C(=O)OC)c(N)c2ccccc21` has an AC50 of 4.64 µM.
`O=C(NCc1ccncc1)c1ccccc1Nc1ccc(SC(F)F)cc1` was tested, and the AC50 was 5.31 µM.
For `N=c1c2c(-c3ccccc3)c(-c3ccccc3)n(Cc3ccco3)c2ncn1CCCn1ccnc1`, the AC50 was > 12 µM (inactive).
With `CCc1sc(C(=O)Nc2nc(-c3ccccn3)cs2)cc1C` the AC50 was 1.82 µM.
For `Cc1ccc(SCCNC(=S)Nc2ccc(C)c(C)c2)cc1`, the AC50 was 6.21 µM.
`O=C(COC(=O)c1ccc([N+](=O)[O-])o1)NC12CC3CC(CC(C3)C1)C2` was tested, and the AC50 was > 12 µM (inactive).
In the case of `Cc1cc(/C=C2\SC(=S)N(C)C2=O)c(C)n1-c1ccc(O)cc1`, the AC50 is reported as 3.33 µM.
`Oc1ccc(N=Nc2ccc3c(c2)OCCO3)c2cccnc12` gave an AC50 of 1.85 µM.
`CCCOc1ccc(C(=O)NNC(=S)NC(=O)CC)cc1` was tested, and the AC50 was 6.95 µM.
With `CCCOc1ccc2ccccc2c1/C=C1\SC(=O)NC1=O` the AC50 was 5.65 µM.
In the case of `COc1ccc2[nH]c(=O)c(CN(Cc3cccnc3)C(=O)Nc3ccccc3)cc2c1`, the AC50 is reported as 6.16 µM.
`Cc1ccc(NS(=O)(=O)c2ccc(N3CCN(c4ccc(O)cc4)CC3)c([N+](=O)[O-])c2)c(C)c1` was tested, and the AC50 was 7.43 µM.
`COc1cc2c(c(OC)c1OC)-c1ccc(O)c(=O)cc1[C@@H](NC(C)=O)CC2` was tested, and the AC50 was 1.87 µM.
With `O=C(Oc1c(Cl)cc(Cl)c2cccnc12)c1cccs1` the AC50 was 1.94 µM.
Work on `CC(=O)c1c(C)oc2c1C(=O)c1ccccc1C2=O` yielded an AC50 of 5.09 µM.
Molecule `O=[N+]([O-])c1ccc(-c2nc(-c3cccs3)c(-c3cccs3)[nH]2)cc1` has an AC50 of 4.2 µM.
`CN(C)c1nc(-c2ccccn2)nnc1-c1ccccc1` gave an AC50 of 5.25 µM.
`O=C(COC(=O)c1ccc([N+](=O)[O-])o1)NCc1ccc(F)cc1` showed an AC50 of 6.66 µM.
Molecule `O=c1c2ccccc2nc(-c2ccc(-c3ccccc3)cc2)n1-c1ccncc1` has an AC50 of 6.21 µM.
`CCCNC(=O)c1ccc2c(=O)c(O)c(-c3ccc(F)cc3)[nH]c2c1` showed an AC50 of 6.08 µM.
Molecule `COc1cc(C(=O)ON=C2C3CC4CC(C3)CC2C4)cc(OC)c1OC` has an AC50 of 5.01 µM.
`C=CCN(CC=C)C(=S)NC(=O)c1ccc(C)c(Br)c1` gave an AC50 of 6.72 µM.
`CC(C)(CN1CCc2ccccc2C1)NS(=O)(=O)c1ccc(Cl)cc1` gave an AC50 of 11 µM.
For `CC(C)CNC(=O)COC(=O)c1ccc([N+](=O)[O-])cc1Cl`, the AC50 was > 12 µM (inactive).
`Clc1cccc(N/N=C(\Cc2nc3ccccc3[nH]2)c2ccccc2)c1` gave an AC50 of 9.04 µM.
With `Cc1noc2ncnc(SCc3ccc(C(F)(F)F)cc3)c12` the AC50 was 7.67 µM.
With `COc1cc(/C=N/O)cc(Br)c1OCc1cccc(Cl)c1` the AC50 was 5.31 µM.
Work on `O=C(Nc1ccc(Br)c(C(F)(F)F)c1)c1ccccc1` yielded an AC50 of 4.78 µM.
